Patent US5817651A, “3-arylcarbonyl-1-(C-attached-N-heteryl)-1H-indoles” (Sanofi, priority 1997, dated 1998)
Structures can show the parent of a compound that is named as a salt. Where two headings read alike, the source gives them in different places.

Tests used:
[1] = test system: acetylcholine-induced abdominal constriction; test: acetylcholine-induced abdominal constriction test (ACH); format: in vivo; parameters: key to ACH remark (Depr. = depressant): The abbreviations IA and Depr. represent, respectively, inactive and depressant; The abbreviations IA and Depr. represent, respectively, inactive and depressant; details: mice; for ED50 / inhibition in vivo at 100 mg/kg: Mus musculus; for inhibition in vivo at 100 mg/kg: dose level 100, read-out: ACH percent inhibition at dose 100; for ACH percent inhibition at dose 30: dose level 30
Description: J. Pharmacol. Chemotherap. 32, 295 (1968); a modification of the anti-bradykinin test, which is also a primary analgesic screening procedure, described by Berkowitz et al., J. Pharmacol. Exptl. Therap. 177, 500-508 (1971), Blane et al., J. Pharm. Pharmacol. 19, 367-373 (1967), Botha et al., Eur. J. Pharmacol. 6, 312-321 (1969) and Deffenu et al., J. Pharm. Pharmacol. 18, 135 (1966); and the Randall-Selitto analgesic test described by Randall and Selitto, Arch. Int. Pharmacodyn., 111, 409-419 (1957).
Data in the developing adjuvant arthritis (AA) and plasma fibronectin (FN) assays are expressed as percent inhibition, i.e. inhibition of non-injected paw inflammation (NIP) and injected paw (RPV) and lowering of plasma fibronectin, the asterisks * and ** indicating statistical significance at the p<0.01 and p<0.05 levels, respectively. […] Non-statistically significant results are recorded as "------ ". In the acetylcholine-induced abdominal constriction test, the test compounds were administered either as suspensions in gum tragacanth (GT) or as aqueous solutions prepared by addition of just sufficient dilute aqueous methanesulfonic acid (MS) or dilute aqueous lactic acid (LA) to dissolve the compound. The compounds are identified by the example number above where their preparations are described. All data in the anti-bradykinin, rat writhing and Randall-Selitto tests were obtained on oral administration.

[2] = test system: acetic acid-induced writhing; test: acetic acid-induced writhing assay in the rat (RW); format: in vivo; details: for ED50: Rattus norvegicus, po, oral administration
Method: (§1) Data in the developing adjuvant arthritis (AA) and plasma fibronectin (FN) assays are expressed as percent inhibition, i.e. inhibition of non-injected paw inflammation (NIP) and injected paw (RPV) and lowering of plasma fibronectin, the asterisks * and ** indicating statistical significance at the p<0.01 and p<0.05 levels, respectively. Compounds are considered active at p<0.05 level. Non-statistically significant results are recorded as "------ ". In the acetylcholine-induced abdominal constriction test, the test compounds were administered either as suspensions in gum tragacanth (GT) or as aqueous solutions prepared by addition of just sufficient dilute aqueous methanesulfonic acid (MS) or dilute aqueous lactic acid (LA) to dissolve the compound. The compounds are identified by the example number above where their preparations are described. All data in the anti-bradykinin, rat writhing and Randall-Selitto tests were obtained on oral administration.

[3] = test system: adjuvant induced arthritis; test: developing adjuvant arthritis (AA) assay; format: in vivo; details: arthritic rats; printed * = p<0.01, ** = p<0.05
Method: Antirheumatic and anti-inflammatory activities of the compounds of the invention were determined using the developing adjuvant arthritis assay in rats and the plasma fibronectin assay in arthritic rats. The developing adjuvant arthritis assay was used in conjunction with the plasma fibronectin assay as a primary screening method in the evaluation of compounds for potential use as disease modifying anti-rheumatic drugs. The procedure used to induce arthritis in rats is a modification of the methods published by Pearson, J. Chron. Dis. 16, 863-874 (1973) and by Glenn et al., Amer. J. Vet. Res. 1180-1193 (1965). Adjuvant induced arthritis bears many of the traits of rheumatoid arthritis. It is a chronic, progressive, deforming arthritis of the peripheral joints, with a primary mononuclear cell response consisting of bone and joint space invasion by pannus. In order to detect disease modifying anti-rheumatic drug activity, drug treatment is started before the disease has become irrevocably established. Since such drugs are not designed to be administered prophylactically, drug treatment of adjuvant arthritis is initiated at a time when the disease is developing but is not yet irreversible. Animals develop significant systemic arthritic disease which can be measured by swelling of the non-injected rear paw (NIP) 15 to 20 days following an initial injection on day 1 of complete Freund's adjuvant into the right hindfoot paw.
as §1

[4] = test system: mouse vasa deferentia preparation; test: mouse vas deferens test (MVD); format: cell-based; details: Mus musculus, inhibition of contractions, in vitro; active at 5.0 μM or less
Description: It has been shown previously that smoking marijuana reduces intraocular pressure in man [Helper and Frank, Marijuana Smoking and Intraocular Pressure., J. Am. Med. Assoc. 217, 1392 (1971)]. Topical application or systemic injection of delta-9 tetrahydrocannabinol, a principal active ingredient in marijuana, also reduces intraocular pressure [Purnell and Gregg, delta-9 Tetrahydrocannabinol, Euphoria and Intraocular Pressure in Man., Ann. Opth. 7, 921-923 (1975); Green and Pederson, Effect of delta-9 Tetrahydrocannabinol on Aqueous Dynamics and Ciliary Body Permeability in the Rabbit Eye., Exptl. Eye Research 15, 499-507 (1973); Colasanti, Craig and Allara, Intraocular Pressure, Ocular Toxicity and Neurotoxicity after Administration of Cannabinol or Cannibigerol, Exptl. Eye Research 39, 252-259 (1984)]. Similarly, synthetic cannabinoids also reduce intraocular pressure [Green, Symunds, Oliver and Elijah, Intraocular Pressure Following Systemic Administration of Cannabinoids., Curr. Eye Research 2, 247-253 (1982); Tiedeman, Shields, Weber, Crow, Coccetto, Harris and Howes, Opthalmology, 88, 270-277 (1981); Colasanti et al., supra]. Cannabinoid receptor binding sites can be defined as those to which radio-labelled 4-(1,1-dimethylheptyl)-2,3'-dihydroxy-6'alpha-(3-hydroxypropyl)-1', 2', 3', 4', 5', 6'-hexahydrobiphenyl (CP 55940) binds in a specific and saturable manner and the binding sites are heterogeneously distributed in the brain [Devane, Dysarz, Johnson, Melvin and Howlett, Determination and Characterization of a Cannabinoid Receptor in Rat Brain, Molecular Pharm. 34, 605-613 (1988)]. Natural and synthetic cannabinoids and certain of the compounds of the present invention, as more particularly described above, bind to CP 55940 binding sites. […] It is believed that agonist activity at the cannabinoid receptor mediates the anti-glaucoma actions of cannabinoids, and that agonist activity at this receptor correlates with ocular pressure lowering actions in man. Accordingly the cannabinoid receptor agonist activity of the compounds of the present invention indicate their usefulness in reducing ocular pressure.

[5] = Table 9, Examples, no route marked in the cell, read-out: ACH ED50
[6] = iv, Table 9, iv, read-out: ACH ED50 (iv)

Row | SMILES | ED50 [1, 5] [mg/kg] | ED50 [2] [mg/kg] | NIP: percent inhibition of non-injected paw inflammation [3] [%] | RPV: percent inhibition of injected paw [3] [%] | IC50 [4] [nM] | other results
1 | CC(C1CCCN(C)C1)n1cc(C(=O)c2ccccc2F)c2ccccc21 (stereo not shown) [Example 4F] | 24 | 6 | 45 | 27 |  | 
2 | Cc1c(C(=O)c2cccc3ccccc23)c2ccccc2n1CC1CCCN1C (stereo not shown) [Example 2Q] |  |  |  |  | 2 | inhibition in vivo at 100 mg/kg ([1]; Table 9): 20%
3 | O=C(c1cccc(F)c1)c1cn(CC2CCCN2)c2ccccc12 (stereo not shown) [Example 8F] |  |  |  |  | 325 | 
4 | CN1CCOCC1Cn1cc(C(=O)c2cccc3ccccc23)c2ccccc21.Cl (stereo not shown) [Example 10C, 3-(1-naphthylcarbonyl)-1-[(4-methyl-3-morpholinyl)methyl]-1H-indole hydrochloride] |  |  |  |  | 0.4 | ACH percent inhibition at dose 30 ([1]; Table 9): 50%
5 | Cc1c(C(=O)c2ccc([S+](C)[O-])cc2)c2ccccc2n1CC1CCCN(C)C1.Cl (stereo not shown) [Example 6A, 1-[(1-methyl-3-piperidinyl)methyl]-2-methyl-3-(4-methylsulfinylbenzoyl)-1H-indole hydrochloride] | 9 | 5 | 93 | 81 |  | 
6 | CSc1ccc(C(=O)c2c(C)n(CC3CCCN(C)C3)c3ccccc23)cc1 (stereo not shown) [Example 2O] | 8 | 5 | 65 | 44 |  | 
7 | O=C(c1cccc2ccccc12)c1cn(CC2COCCN2Cc2ccccc2)c2ccccc12 (stereo not shown) [Example 3F] |  |  |  |  | 224 | ED50 [1, 6]: 2.2 mg/kg
8 | CN1CCN(C)C(Cn2cc(C(=O)c3cccc4ccccc34)c3ccccc32)C1 (stereo not shown) [3G (base)] |  |  |  |  | 15 | 
9 | COc1ccc(C(=O)c2c(C)n(C3CN(C)C3)c3ccccc23)cc1.O=C(O)/C=C\C(=O)O [Example 10A, 2-methyl-3-(4-methoxybenzoyl)-1-(1-methyl-3-azetidinyl)-1H-indole maleate] | 40 |  |  |  | 495 | 
10 | O=C(c1cccc2ccccc12)c1cn(C2CCCCN(Cc3ccccc3)C2)c2ccccc12 (stereo not shown) [Example 2AO] |  |  |  |  | 480 | 
11 | CN1CCCCC1Cn1cc(C(=O)c2ccccc2F)c2ccccc21 (stereo not shown) [Example 2AC] | 10 |  |  |  | 3 | ACH remark (Depr. = depressant) ([1]; Table 9, remark beside the ED50): Depr.
12 | CC(C1CCCN1C)n1cc(C(=O)c2ccccc2F)c2ccccc21 (stereo not shown) [Example 1AC] |  |  |  |  | 111 | inhibition in vivo at 100 mg/kg ([1]; Table 9): 40%
13 | Cc1c(C(=O)c2cccc3ccccc23)c2ccccc2n1C1CCCCN(C)C1 (stereo not shown) [Example 2AB] |  |  |  |  | 13 | inhibition in vivo at 100 mg/kg ([1]; Table 9): 30%
14 | O=C(c1cccc2ccccc12)c1cn(CC2COCCN2)c2ccccc12 (stereo not shown) [Example 8G] |  |  |  |  | 4.7 | ACH percent inhibition at dose 30 ([1]; Table 9): 100%
15 | COc1ccc(C(=O)c2c(C)n(CC3=CCCN(C)C3)c3ccccc23)cc1 [Example 2AF] | 11 | 15 | 93 | 78 |  | 
16 | COc1ccc(C(=O)c2c(C)n(CC3CCCN(C)C3)c3ccc(F)cc23)cc1 (stereo not shown) [Example 2I] | 40 | 5 | 70 | 51 |  | 
17 | O=C(c1cccc2ccccc12)c1cn(CC2CCCCN2Cc2ccccc2)c2ccccc12 (stereo not shown) [Example 2AM] |  |  |  |  | 51 | 
18 | Cc1c(C(=O)c2ccccc2F)c2ccccc2n1CC1CCC(C)N1 (stereo not shown) [Example 8E] |  |  |  |  | 160 | 
19 | CCc1c(C(=O)c2ccc(OC)cc2)c2ccccc2n1CC1CCCN(C)C1 (stereo not shown) [Example 2K] | 16 | 23 | 68 | 54 |  | ED50 [1, 6]: 11 mg/kg; ED50 ([1]; sc, Table 9, sc, read-out: ACH ED50 (sc)): 10 mg/kg
20 | Cc1c(C(=O)c2ccc(O)cc2)c2ccccc2n1CC1CCC(C)N1C (stereo not shown) [Example 11B, 2-methyl-3-(4-hydroxybenzoyl)-1-[(1,5-dimethyl-2-pyrrolidinyl)methyl]-1H-indole hydrochloride] |  |  |  |  | 217 | 
21 | Cc1c(C(=O)c2ccccc2)c2ccccc2n1CC1CCCN(C)C1 (stereo not shown) [Example 1K] | 33 | 40 | 76 | 50 |  | 
22 | COc1ccc(C(=O)c2c(C)n(C3CCCCN(C)C3)c3ccccc23)cc1 (stereo not shown) [Example 2X] | 29 |  | 43 |  |  | RW percent inhibition at dose 30 ([2]; oral, dose level 30): 54%; RW percent inhibition at dose 100 ([2]; oral, dose level 100): 82%
23 | COc1ccc(C(=O)c2c(C)n(CC3CCCNC3)c3ccccc23)cc1 (stereo not shown) [Example 4B] | 15 | 10 | 91 | 79 |  | 
24 | Cc1c(C(=O)c2ccc(O)cc2)c2ccccc2n1CC1CCCN1C (stereo not shown) [Example 11A, 2-methyl-3-(4-hydroxybenzoyl)-1-[(1-methyl-2-pyrrolidinyl)methyl]-1H-indole hydrochloride] |  |  |  |  | 284 | 
25 | COc1ccc(C(=O)c2c(C)n(CC3CCC(C)(C)N3C)c3ccccc23)cc1 (stereo not shown) [Example 1AH] |  |  |  |  | 330 | 
26 | COc1ccc(C(=O)c2c(C)n(CCC3CCCCN3C)c3ccccc23)cc1 (stereo not shown) [Example 2G] | 26 | 3 | 93 | 73 |  | 
27 | CN1CC[N+](C)(C)CC1Cn1cc(C(=O)c2cccc3ccccc23)c2ccccc21 (stereo not shown) [3G (quaternary)] |  |  |  |  | 156 | 
28 | Cc1c(C(=O)c2ccccc2F)c2ccccc2n1CC1CCCN1C (stereo not shown) [Example 2AJ] | 72 | 6 | 31 |  |  | 
29 | COc1ccc(C(=O)c2cn(CC3CCCN(C)C3)c3ccccc23)cc1 (stereo not shown) [Example 1I] |  | 32 | 61 | 19 |  | ED50 [1, 6]: 5 mg/kg; ACH ED50 (MS) ([1]; Table 9, aqueous solution with dilute methanesulfonic acid (MS)): 38 mg/kg
